Reference: PubChem BioAssay AID1963435 (Molecular Pharmacology Branch, DTP, NCI, 2024)

Tested on: PANC-1 complex spheroid growth, percent test/control
Assay: Anticancer human tumor PANC-1 cell line growth inhibition [Asc];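 also: spheroids exposed to agents for 7 days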;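 as to viability, T/C: percent viability relative to DMSO vehicle wells taken as 100%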
Conditions: for IC50: curve of first compound; for viability, T/C: stronger effect = lower value
Protocol: Multicellular complex tumor spheroid response to apoptosis pathway targeting inhibitors Alrizomadlin, Pelcitoclax, and Dasminapant in combination with a variety of drugs and investigational agents in selected tumor cell lines
The MDM2 inhibitor alrizomadlin, the Bcl-2/Bcl-xL inhibitor pelcitoclax, and the IAPs inhibitor dasminapant were evaluated both individually and in combination with standard of care and investigational anticancer small molecules within a complex spheroid model of solid tumors. . Complex spheroids include a stromal component modeled by human endothelial cells (HUVEC) and fibroblasts modeled by human mesenchymal stem cells (MSCs). The concentration ranges selected for each drug and investigational agent were based upon clinically achievable concentrations if the clinical Cmax of the agent was known.
Compounds. The drugs and investigational agents: alrizomadlin (APG-115; NSC831270), pelcitoclax (APG-1252; NSC835773), dasminapant (APG-1387;NSC834197), TAK-243 (NSC785004), copanlisib (NSC809693), olaparib (NSC753686), talazoparib (NSC767125), cobimetinib (NSC 768068), eltanexor (KPT-8602, NSC 794443), abemaciclib (NSC 768073), sotorasib (NSC818433), adagrasib (NSC 831453), MRTX-1133 (NSC 836407), Iadademestat (ORY1001, NSC 806812), and RMC-4630 (NSC839698), were obtained from the NCI Developmental Therapeutics Program Chemical Repository. The FDA-approved anticancer drug set is available from the Developmental Therapeutics Program at https://dtp.cancer.gov/organization/dscb/obtaining/available plates.htm. […] The stock solutions were prepared in dimethyl sulfoxide (DMSO, Sigma-Aldrich, St. Louis, MO, cat. D2650) at 800-fold the tested concentration and stored at -70 degrees C prior to their use. All drugs and investigational agents were tested over a range starting from a high concentration at or near the clinical Cmax and decreasing in half-log increments. If the clinical Cmax for an agent had not been determined, the highest concentration tested was 10 microM.
The patient-derived cancer (PDC) cell lines include five colon adenocarcinomas: 186277-243-T-J2-PDC, 616215-338-R-J1-PDC, 439559-082-T-J2-PDC, 463943-066-T-J2-PDC, and 519858-162-T-J1-PDC; three pancreatic carcinomas: 323965-272-R-J2-PDC, 521955-158-R6-J3-PDC, and 521955-158-R2-J5-PDC; two uterine sarcomas: 327498-152-R-J2-PDC and 993429-296-R-J1-PDC; two rhabdomyosarcomas: 755483-174-R-J1-PDC and 772245-204-R-J1-PDC; two soft tissue sarcomas: 126254-015-R-J1-PDC and 494315-158-R-J1-PDC; two malignant fibrous histiocytomas: 317291-083-R-J1-PDC and 596521-263-R-J1-PDC; two breast carcinomas: 171881-019-R-J1-PDC and 885512-296-R-J2-PDC; and one ovarian carcinoma: 6556581-035-R-J-PDC were obtained from the NCI PDMR, (https://pdmr.cancer.gov). The established cell lines HSSY-2 synovial sarcoma (RRID:CVCL 8719), SYO-1 synovial sarcoma (RRID:CVCL_7146), MPNST malignant peripheral neural sheath tumor were obtained from the Sloan Kettering Institute. The following established cell lines were purchased from the American Type Culture Collection (ATCC, Manassas, VA), Sor the received from the NCI repository:, PANC-1 pancreatic carcinoma (CRL-1469, RRID:CVCL_0480), OVCAR-5 ovarian carcinoma (RRID:CVCL_1628), OVCAR-8 ovarian carcinoma (RRID:CVCL_1629), , MCF-7 breast carcinoma (CRL-12584, RRID:CVCL_0031), MDA-MB-231 breast carcinoma (CRL-12532, RRID:CVCL_0062), NCI-H1876 small cell lung carcinoma (CRL-5902, RRID:CVCL_1503), NCI-H510A small cell lung carcinoma (HTB-184, RRID:CVCL_1565), NCI-H1417 (CRL-5869, RRID:CVCL_1469), and NCI-H196 small cell lung carcinoma (CRL-5823, RRID:CVCL_1509). Dr. Peter Houghton (Greehey Children's Cancer Research Institute, University of Texas Health Science Center, San Antonio, TX) provided Rh-18 rhabdomyosarcoma (RRID:CVCL_1659). Pooled donor human umbilical vein endothelial cells (HUVEC, Lonza, cat. CC-2519) and human mesenchymal stem cells (hMSC, Lonza, cat. PT-2501) were purchased from Lonza (Walkersville, MD).
Cell Culture. […]

[1] = second compound 0.00949 µM, first compound 0.0316 µM
[2] = second compound 0.00949 µM, first compound 0.1 µM
[3] = second compound 0.03 µM, first compound 0.0316 µM
[4] = second compound 0.03 µM, first compound 0.1 µM
[5] = second compound 0.0949 µM, first compound 0.0316 µM
[6] = second compound 0.0949 µM, first compound 0.1 µM
[7] = second compound 0.3 µM, first compound 0.0316 µM
[8] = second compound 0.3 µM, first compound 0.1 µM
[9] = second compound 0.949 µM, first compound 0.0316 µM
[10] = second compound 0.949 µM, first compound 0.1 µM
[11] = second compound 3 µM, first compound 0.0316 µM
[12] = second compound 3 µM, first compound 0.1 µM

## Cn1ncnc1[C@H]1c2n[nH]c(=O)c3cc(F)cc(c23)N[C@@H]1c1ccc(F)cc1 + CCN1C(C(=O)NC23CCC(C(=O)O)(CC2)CC3)C(c2cccc(Cl)c2F)C2(C(=O)Nc3cc(Cl)ccc32)C12CCCCC2
Second compound 0.00949 µM
  IC50: > 0.1 µM
Second compound 0.03 µM
  IC50: > 0.1 µM
Second compound 0.0949 µM
  IC50: > 0.1 µM
Second compound 0.3 µM
  IC50: > 0.1 µM
Second compound 0.949 µM
  IC50: > 0.1 µM
Second compound 3 µM
  IC50: > 0.1 µM
Second compound 0.00949 µM, first compound 0.000316 µM
  viability, T/C: 101%
Second compound 0.00949 µM, first compound 0.001 µM
  viability, T/C: 89.6%
Second compound 0.00949 µM, first compound 0.00316 µM
  viability, T/C: 97.4%
Second compound 0.00949 µM, first compound 0.01 µM
  viability, T/C: 96.7%
[1]
  viability, T/C: 111%
[2]
  viability, T/C: 113%
Second compound 0.03 µM, first compound 0.000316 µM
  viability, T/C: 107%
Second compound 0.03 µM, first compound 0.001 µM
  viability, T/C: 89.5%
Second compound 0.03 µM, first compound 0.00316 µM
  viability, T/C: 98.4%
Second compound 0.03 µM, first compound 0.01 µM
  viability, T/C: 98.9%
[3]
  viability, T/C: 109%
[4]
  viability, T/C: 101%
Second compound 0.0949 µM, first compound 0.000316 µM
  viability, T/C: 93.4%
Second compound 0.0949 µM, first compound 0.001 µM
  viability, T/C: 98.1%
Second compound 0.0949 µM, first compound 0.00316 µM
  viability, T/C: 103%
Second compound 0.0949 µM, first compound 0.01 µM
  viability, T/C: 94.2%
[5]
  viability, T/C: 108%
[6]
  viability, T/C: 102%
Second compound 0.3 µM, first compound 0.000316 µM
  viability, T/C: 98.8%
Second compound 0.3 µM, first compound 0.001 µM
  viability, T/C: 96.2%
Second compound 0.3 µM, first compound 0.00316 µM
  viability, T/C: 109%
Second compound 0.3 µM, first compound 0.01 µM
  viability, T/C: 101%
[7]
  viability, T/C: 110%
[8]
  viability, T/C: 106%
Second compound 0.949 µM, first compound 0.000316 µM
  viability, T/C: 111%
Second compound 0.949 µM, first compound 0.001 µM
  viability, T/C: 117%
Second compound 0.949 µM, first compound 0.00316 µM
  viability, T/C: 106%
Second compound 0.949 µM, first compound 0.01 µM
  viability, T/C: 107%
[9]
  viability, T/C: 105%
[10]
  viability, T/C: 114%
Second compound 3 µM, first compound 0.000316 µM
  viability, T/C: 109%
Second compound 3 µM, first compound 0.001 µM
  viability, T/C: 123%
Second compound 3 µM, first compound 0.00316 µM
  viability, T/C: 124%
Second compound 3 µM, first compound 0.01 µM
  viability, T/C: 116%
[11]
  viability, T/C: 125%
[12]
  viability, T/C: 106%

## O=C(c1cc(Cc2n[nH]c(=O)c3ccccc23)ccc1F)N1CCN(C(=O)C2CC2)CC1 + CCN1C(C(=O)NC23CCC(C(=O)O)(CC2)CC3)C(c2cccc(Cl)c2F)C2(C(=O)Nc3cc(Cl)ccc32)C12CCCCC2
Second compound 0.00949 µM
  IC50: > 10 µM
Second compound 0.03 µM
  IC50: > 10 µM
Second compound 0.0949 µM
  IC50: > 10 µM
Second compound 0.3 µM
  IC50: > 10 µM
Second compound 0.949 µM
  IC50: > 10 µM
Second compound 3 µM
  IC50: > 10 µM
[1]
  viability, T/C: 88.1%
[2]
  viability, T/C: 93.6%
Second compound 0.00949 µM, first compound 0.316 µM
  viability, T/C: 96.2%
Second compound 0.00949 µM, first compound 1 µM
  viability, T/C: 93.6%
Second compound 0.00949 µM, first compound 3.16 µM
  viability, T/C: 114%
Second compound 0.00949 µM, first compound 10 µM
  viability, T/C: 104%
[3]
  viability, T/C: 103%
[4]
  viability, T/C: 98.7%
Second compound 0.03 µM, first compound 0.316 µM
  viability, T/C: 102%
Second compound 0.03 µM, first compound 1 µM
  viability, T/C: 99.4%
Second compound 0.03 µM, first compound 3.16 µM
  viability, T/C: 102%
Second compound 0.03 µM, first compound 10 µM
  viability, T/C: 97.2%
[5]
  viability, T/C: 100%
[6]
  viability, T/C: 94.9%
Second compound 0.0949 µM, first compound 0.316 µM
  viability, T/C: 99.5%
Second compound 0.0949 µM, first compound 1 µM
  viability, T/C: 104%
Second compound 0.0949 µM, first compound 3.16 µM
  viability, T/C: 102%
Second compound 0.0949 µM, first compound 10 µM
  viability, T/C: 93.9%
[7]
  viability, T/C: 104%
[8]
  viability, T/C: 97.9%
Second compound 0.3 µM, first compound 0.316 µM
  viability, T/C: 111%
Second compound 0.3 µM, first compound 1 µM
  viability, T/C: 103%
Second compound 0.3 µM, first compound 3.16 µM
  viability, T/C: 105%
Second compound 0.3 µM, first compound 10 µM
  viability, T/C: 93.2%
[9]
  viability, T/C: 101%
[10]
  viability, T/C: 103%
Second compound 0.949 µM, first compound 0.316 µM
  viability, T/C: 110%
Second compound 0.949 µM, first compound 1 µM
  viability, T/C: 102%
Second compound 0.949 µM, first compound 3.16 µM
  viability, T/C: 111%
Second compound 0.949 µM, first compound 10 µM
  viability, T/C: 101%
[11]
  viability, T/C: 116%
[12]
  viability, T/C: 117%
Second compound 3 µM, first compound 0.316 µM
  viability, T/C: 107%
Second compound 3 µM, first compound 1 µM
  viability, T/C: 126%
Second compound 3 µM, first compound 3.16 µM
  viability, T/C: 121%
Second compound 3 µM, first compound 10 µM
  viability, T/C: 114%
